Measured values as given in ChEMBL document CHEMBL4414576, “Recent advancements in mechanistic studies and structure activity relationship of FoF1 ATP synthase inhibitor as antimicrobial agent” (Eur J Med Chem, 2019).
Values after ≈ are worked out from the molar mass of the structure shown. Starred links: 1 amine or outer side, 2 acyl side, 3 side chain; linkers in the order of their positions; H or OH if unused. Non-standard residues stand in square brackets, D forms with d. Residues, ends and D or L forms follow the SMILES beside them. *: point of attachment. X2 = CCC(=O)C[C@@H](O)CC(C)C[C@H](N[*:1])C(=O)[*:2]; Leu(3R-OH) = CC(C)[C@@H](O)[C@H](N)C(=O)O; NH((S)CH(Me)CH2NMe2) = C[C@@H](CN(C)C)N*; Pro(4S-Me) = C[C@@H]1CN[C@H](C(=O)O)C1; X1 = CC[C@@H](C)/C=C/C(=O)*; Aib = CC(C)(N)C(=O)O; βAla = NCCC(=O)O

Experiments:
Assay type in all cases: functional
Staphylococcus aureus = assay: Antimicrobial activity against Staphylococcus aureus
Bacillus subtilis = assay: Antimicrobial activity against Bacillus subtilis
Streptococcus pyogenes = assay: Antimicrobial activity against Streptococcus pyogenes
Enterococcus faecalis = assay: Antimicrobial activity against Streptococcus faecalis
Micrococcus luteus = assay: Antimicrobial activity against Sarcina lutea
Microbacterium = assay: Antimicrobial activity against Microbacterium species
Candida = assay: Antifungal activity against Candida
[1] = Antifungal activity against Cryptococcus
Sporotrichum = assay: Antifungal activity against Sporotrichum
Trichophyton = assay: Antifungal activity against Trichophyton
Microsporum = assay: Antifungal activity against Microsporum
Streptococcus pneumoniae = assay: Antimicrobial activity against Streptococcus pneumoniae

Q: With `CCC(=O)C[C@@H](O)CC(C)C[C@H](NC(=O)[C@@H]1C[C@H](C)CN1C(=O)/C=C/[C@H](C)CC)C(=O)N[C@H](C(=O)NC(C)(C)C(=O)N[C@@H](CC(C)C)C(=O)N[C@@H](CC(C)C)C(=O)NC(C)(C)C(=O)NC(C)(C)C(=O)NCCC(=O)N[C@@H](C)CN(C)C)[C@H](O)C(C)C` (stereo partly drawn) (X1-[Pro(4S-Me)][X2][Leu(3R-OH)][Aib]LL[Aib][Aib][βAla]-{NH((S)CH(Me)CH2NMe2)}) as the molecule, how does the MIC (Staphylococcus aureus) read?
A: 2.52 to 50 µg/mL (≈ 2.07 to 41 µM)

Q: And the MIC (Bacillus subtilis)?
A: 2.52 to 50 µg/mL (≈ 2.07 to 41 µM)

Q: And the MIC (Streptococcus pyogenes)?
A: 2.52 to 50 µg/mL (≈ 2.07 to 41 µM)

Q: What about the MIC (Enterococcus faecalis) of the same molecule?
A: 2.52 to 50 µg/mL (≈ 2.07 to 41 µM)

Q: And the MIC (Micrococcus luteus)?
A: 2.52 to 50 µg/mL (≈ 2.07 to 41 µM)

Q: What about the MIC (Microbacterium) of the same molecule?
A: 2.52 to 50 µg/mL (≈ 2.07 to 41 µM)

Q: What about the MIC (Candida) of the same molecule?
A: 1 to 10 µg/mL (≈ 0.821 to 8.21 µM)

Q: What about the MIC [1] of the same molecule?
A: 1 to 10 µg/mL (≈ 0.821 to 8.21 µM)

Q: What about the MIC (Sporotrichum) of the same molecule?
A: 1 to 10 µg/mL (≈ 0.821 to 8.21 µM)

Q: What about the MIC (Trichophyton) of the same molecule?
A: 1 to 10 µg/mL (≈ 0.821 to 8.21 µM)

Q: What about the MIC (Microsporum) of the same molecule?
A: 1 to 10 µg/mL (≈ 0.821 to 8.21 µM)

Q: Which MIC (Streptococcus pneumoniae) does the source give for `COc1nc2ccc(Br)cc2cc1[C@H](c1ccccc1)[C@](O)(CCN(C)C)c1ccc(Cl)cc1` here?
A: 1 µg/mL (≈ 1.85 µM)
